Laboratory results published in US12629374B2, “Antimalarial agents” (Merck Sharp & Dohme LLC, priority 2020, dated 2026).
Where two headings read alike, the source gives them in different places.

Tested on: ring stage parasites
Assay: Parasite growth potency assay, 72 hours, LDH readout
Type: cell-based
Conditions: parasite growth measured by LDH assay after 72 hours at 37° C., 0.7% rings, 2% haematocrit, read-out: EC50
Method in brief: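 Parasite growth was quantified by LDH assay after a −80 °C freeze-thaw. Before that, compound was incubated for 72 h at 37 °C under humidified gas with ring-stage cultures adjusted to 0.7% parasitemia and 2% haematocrit in serum- and albumax-supplemented RPMI-Hepes.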

SMILES	EC50 (72 h) [nM]	EC50 [nM]
CCC1(CC)CC(=O)N([C@H](CCS(C)(=O)=O)c2cccc(C(=O)N[C@@H]3c4ccccc4C[C@H]3O)c2)C(=N)N1 [Example 153, [4,4-diethyl-1-[1-[3-[[(1R,2R)-2-hydroxyindan-1-yl]carbamoyl]phenyl]-3-methylsulfonyl-propyl]-6-oxo-hexahydropyrimidin-2-ylidene]ammonium; 2,2,2-trifluoroacetate]	77.8	
CCC1(CC)CC(=O)N([C@H](CCS(C)(=O)=O)c2cccc(C(=O)N[C@@H]3c4ccccc4C[C@@]3(C)O)c2)C(=N)N1 [Example 154A, 3-[1-(4,4-diethyl-2-imino-6-oxo-hexahydropyrimidin-1-yl)-3-methylsulfonyl-propyl]-N-[(1R,2R)-2-hydroxy-2-methyl-indan-1-yl]benzamide]	54	
CCC1(CC)CC(=O)N([C@H](CCS(C)(=O)=O)c2cccc(C(=O)N[C@@H]3c4ccccc4C[C@]3(C)O)c2)C(=N)N1 [Example 154B, 3-[1-(4,4-diethyl-2-imino-6-oxo-hexahydropyrimidin-1-yl)-3-methylsulfonyl-propyl]-N-[(1R,2S)-2-hydroxy-2-methyl-indan-1-yl]benzamide]		69
CCC1(CC)CC(=O)N([C@H](CCS(C)(=O)=O)c2cccc(C(=O)N[C@@H]3c4ccccc4OC(C)(C)[C@H]3O)c2)C(=N)N1 [Example 155, [4,4-diethyl-1-[1-[3-[[(3S,4R)-3-hydroxy-2,2-dimethyl-chroman-4-yl]carbamoyl]phenyl]-3-methylsulfonyl-propyl]-6-oxo-hexahydropyrimidin-2-ylidene]ammonium; 2,2,2-trifluoroacetate]	17.2	
CCC1(CC)CC(=O)N([C@H](CCS(C)(=O)=O)c2cccc(C(=O)N[C@H]3CC(C)(C)Oc4ccccc43)c2)C(=N)N1 [Example 156, [1-[1-[3-[[(4S)-2,2-dimethylchroman-4-yl]carbamoyl]phenyl]-3-methylsulfonyl-propyl]-4,4-diethyl-6-oxo-hexahydropyrimidin-2-ylidene]ammonium; 2,2,2-trifluoroacetate]	5.7	
CCC1(CC)CC(=O)N([C@H](CCOC(F)F)c2cccc(C(=O)N[C@@H]3c4ccccc4C[C@H]3O)c2)C(=N)N1 [Example 157, [1-[3-(difluoromethoxy)-1-[3-[[(1R,2R)-2-hydroxyindan-1-yl]carbamoyl]phenyl]propyl]-4,4-diethyl-6-oxo-hexahydropyrimidin-2-ylidene]ammonium; 2,2,2-trifluoroacetate]	1.8	
CCC1(CC)CC(=O)N([C@H](CCOC(F)F)c2cccc(C(=O)N[C@@H]3c4ccccc4C[C@@]3(C)O)c2)C(=N)N1 [Example 158A, 3-[1-(4,4-diethyl-2-imino-6-oxo-hexahydropyrimidin-1-yl)-3-(difluoromethoxy)propyl]-N-[(1R,2R)-2-hydroxy-2-methyl-indan-1-yl]benzamide]	2.6	
CCC1(CC)CC(=O)N([C@H](CCOC(F)F)c2cccc(C(=O)N[C@@H]3c4ccccc4C[C@]3(C)O)c2)C(=N)N1 [Example 158B, 3-[1-(4,4-diethyl-2-imino-6-oxo-hexahydropyrimidin-1-yl)-3-(difluoromethoxy)propyl]-N-[(1R,2S)-2-hydroxy-2-methyl-indan-1-yl]benzamide]		2.4
CCC1(CC)CC(=O)N([C@H](CCOC(F)F)c2cccc(C(=O)N[C@@H]3c4ccccc4OC(C)(C)[C@H]3O)c2)C(=N)N1 [Example 159, [1-[3-(difluoromethoxy)-1-[3-[[(3S,4R)-3-hydroxy-2,2-dimethyl-chroman-4-yl]carbamoyl]phenyl]propyl]-4,4-diethyl-6-oxo-hexahydropyrimidin-2-ylidene]ammonium; 2,2,2-trifluoroacetate]	0.8	
CCC1(CC)CC(=O)N([C@H](CCOC(F)F)c2cccc(C(=O)N[C@H]3CC(C)(C)Oc4ccccc43)c2)C(=N)N1 [Example 160, [1-[3-(difluoromethoxy)-1-[3-[[(4S)-2,2-dimethylchroman-4-yl]carbamoyl]phenyl]propyl]-4,4-diethyl-6-oxo-hexahydropyrimidin-2-ylidene]ammonium; 2,2,2-trifluoroacetate]	0.5	
CCC1(CC)CC(=O)N([C@H](CCS(C)(=O)=O)c2cccc(C(=O)N[C@H]3CCOc4ccccc43)c2)C(=N)N1 [Example 161, [1-[1-[3-[[(4S)-chroman-4-yl]carbamoyl]phenyl]-3-methylsulfonyl-propyl]-4,4-diethyl-6-oxo-hexahydropyrimidin-2-ylidene]ammonium; 2,2,2-trifluoroacetate]	23	
CCC1(CC)CC(=O)N([C@H](CCS(C)(=O)=O)c2cccc(C(=O)N[C@H]3C[C@H](C(F)(F)F)Oc4ccccc43)c2)C(=N)N1 [Example 162, [4,4-diethyl-1-[3-methylsulfonyl-1-[3-[[(2R,4S)-2-(trifluoromethyl)chroman-4-yl]carbamoyl]phenyl]propyl]-6-oxo-hexahydropyrimidin-2-ylidene]ammonium; 2,2,2-trifluoroacetate]	5.2	
CCC[C@H](c1cccc(C(=O)N[C@@H]2c3ccccc3OC[C@@]2(C)O)c1)N1C(=N)NC(CC)(CC)CC1=O [Example 163A, 3-[(1R)-1-(4,4-diethyl-2-imino-6-oxo-hexahydropyrimidin-1-yl)butyl]-N-[(3S,4R)-3-hydroxy-3-methyl-chroman-4-yl]benzamide]	0.3	
CCC[C@H](c1cccc(C(=O)N[C@@H]2c3ccccc3OC[C@]2(C)O)c1)N1C(=N)NC(CC)(CC)CC1=O [Example 163B, 3-[(1R)-1-(4,4-diethyl-2-imino-6-oxo-hexahydropyrimidin-1-yl)butyl]-N-[(3R,4R)-3-hydroxy-3-methyl-chroman-4-yl]benzamide]		0.4
CCC1(CC)CC(=O)N([C@H](CCOC(F)F)c2cccc(C(=O)N[C@H]3CCOc4ccccc43)c2)C(=N)N1 [Example 164, [1-[1-[3-[[(4S)-chroman-4-yl]carbamoyl]phenyl]-3-(difluoromethoxy)propyl]-4,4-diethyl-6-oxo-hexahydropyrimidin-2-ylidene]ammonium; 2,2,2-trifluoroacetate]	0.9	
CCC1(CC)CC(=O)N([C@H](CCOC)c2cccc(C(=O)N[C@H]3c4cc(F)ccc4OC(C)(C)[C@@H]3O)c2)C(=N)N1 [Example 165A, [4,4-diethyl-1-[(1R)-1-[3-[[(3R,4S)-6-fluoro-3-hydroxy-2,2-dimethyl-chroman-4-yl]carbamoyl]phenyl]-3-methoxy-propyl]-6-oxo-hexahydropyrimidin-2-ylidene]ammonium; 2,2,2-trifluoroacetate]	41.4	
CCC1(CC)CC(=O)N([C@H](CCOC)c2cccc(C(=O)N[C@@H]3c4cc(F)ccc4OC(C)(C)[C@H]3O)c2)C(=N)N1 [Example 165B, [4,4-diethyl-1-[(1R)-1-[3-[[(3S,4R)-6-fluoro-3-hydroxy-2,2-dimethyl-chroman-4-yl]carbamoyl]phenyl]-3-methoxy-propyl]-6-oxo-hexahydropyrimidin-2-ylidene]ammonium; 2,2,2-trifluoroacetate]	0.4	
COCC[C@H](c1cccc(C(=O)N[C@@H]2c3ccccc3C[C@@]2(C)O)c1)N1C(=N)NC(C)(C)CC1=O [Example 166A, N-[(1R,2R)-2-hydroxy-2-methyl-indan-1-yl]-3-[(1R)-1-(2-imino-4,4-dimethyl-6-oxo-hexahydropyrimidin-1-yl)-3-methoxy-propyl]benzamide]		52.1
